Experimental data as given in patent US20100261711A1, “SELECTIVE ANTICONVULSANT AGENTS AND THEIR USES” (WiSys Technology Foundation, priority 2009, published 2010).
Like-named read-outs stand apart in the source and are kept apart here. Marks after values point to notes of the source that are not given here.

Assays:
MES-induced seizures [1] = conditions: Mice IP; from Antiepileptic Drugs, 5th ed., Levy et al., 2002; cited from earlier work
[2] = tested on: Metrazol-induced clonic seizures; conditions: Rat PO; from Antiepileptic Drugs, 5th ed., Levy et al., 2002; cited from earlier work
6 Hz psychomotor seizure = test: Minimal clonic seizure (6 Hz) test; assay type: in vivo; conditions: Mus musculus, ip, Mice IP
Source text: Like the maximal electroshock (MES) test, the minimal clonic seizure (6 Hz) test is used to assess a compound's efficacy against electrically-induced seizures but uses a lower frequency (6 Hz) and longer duration of stimulation (3 s). Test compounds are pre-administered to mice via ip injection. […] Untreated mice will display seizures characterized by a minimal clonic phase followed by stereotyped, automatistic behaviors described originally as being similar to the aura of human subjects with partial seizures. Animals not displaying this behavior are considered protected (Table 10).

MES-induced seizures [3] = conditions: Rat PO; from Antiepileptic Drugs, 5th ed., Levy et al., 2002; cited from earlier work
[4] = Toxicity (TOX), rotorod procedure, mice; assay type: in vivo; conditions: mouse, in vivo; IP route in mice (footnote of Table 10); read-out: TD50
Description: (§1) The benzodiazepine derivative compounds selective for GABAa receptor subunits were tested for the ability to suppress seizures in several standard rat and mouse models of epilepsy. […] The standard models incorporated into anticonvulsant screening include the maximal electroshock test (MES), the subcutaneous Metrazol test (scMet), and evaluations of toxicity (TOX). The data for each condition is presented as a ratio of either the number of animals protected or toxic (loss of locomotor activity) over the number of animals tested at a given time point and dose.
(§2) To assess a compound's undesirable side effects (toxicity), animals are monitored for overt signs of impaired neurological or muscular function. […] When a mouse is placed on a rod that rotates at a speed of 6 rpm, the animal can maintain its equilibrium for long periods of time. The animal is considered toxic if it falls off this rotating rod three times during a 1-min period. In rats, minimal motor deficit is indicated by ataxia, which is manifested by an abnormal, uncoordinated gait. Rats used for evaluating toxicity are examined before the test drug is administered, since individual animals may have peculiarities in gait, equilibrium, placing response, etc., which might be attributed erroneously to the test substance.

[5] = tested on: Metrazol-induced clonic seizures; conditions: Mice IP; from Antiepileptic Drugs, 5th ed., Levy et al., 2002; cited from earlier work
[6] = tested on: minimal motor deficit (ataxia, abnormal gait); conditions: Rat PO; from Antiepileptic Drugs, 5th ed., Levy et al., 2002; cited from earlier work
[7] = target: T1, GABAA/α1 (α1β3γ2 GABAA receptors) (Homo sapiens, UniProt P14867+P18507); test: Competitive binding assay, [3H]flunitrazepam; conditions: αxβ3γ2, [3H]flunitrazepam competition; read-out: Binding Affinity at GABAA/α1
T1 construct: expressed in transfected cells
Description: (§3) The GABAA subunit selectivity of several compounds prepared as described above were determined using competitive binding assays. […] Membranes were harvested with a Brandel cell harvester followed by three ice-cold washes onto polyethyleneimine-pretreated (0.3%) Whatman GF/C filters. Filters were dried overnight and then soaked in Ecoscint, a liquid scintillation cocktail (National Diagnostics; Atlanta, Ga.). Bound radioactivity was quantified by liquid scintillation counting. Membrane protein concentrations were determined using an assay kit from Bio-Rad (Hercules, Calif.) with bovine serum albumin as the standard.

[8] = target: T2, GABAA/α4 (α4β3γ2 GABAA receptors) (Homo sapiens, UniProt P18507+P48169); test: Competitive binding assay, [3H]flunitrazepam
T2 construct: expressed in transfected cells
Description: as §3

[9] = target: T3, GABAA/α6 (α6β3γ2 GABAA receptors) (Homo sapiens, UniProt P18507+Q16445); test: Competitive binding assay, [3H]flunitrazepam
T3 construct: expressed in transfected cells
Description: as §3

[10] = target: T4, GABAA/α3 (α3β3γ2 GABAA receptors) (Homo sapiens, UniProt P18507+P34903); test: Competitive binding assay, [3H]flunitrazepam; conditions: Binding Affinity at GABAA/α3, αxβ3γ2, [3H]flunitrazepam competition
T4 construct: expressed in transfected cells
Description: as §3

[11] = target: T5, GABAA/α2 (α2β3γ2 GABAA receptors) (Homo sapiens, UniProt P18507+P47869); test: Competitive binding assay, [3H]flunitrazepam; conditions: αxβ3γ2, [3H]flunitrazepam competition; read-out: Binding Affinity at GABAA/α2
T5 construct: expressed in transfected cells
Description: as §3

[12] = target: T6, GABAA/α5 (α5β3γ2 GABAA receptors) (Homo sapiens, UniProt P18507+P31644); test: Competitive binding assay, [3H]flunitrazepam; conditions: Binding Affinity at GABAA/α5, αxβ3γ2, [3H]flunitrazepam competition
T6 construct: expressed in transfected cells
Description: as §3

GABAA/α5 receptors = GABAA/α5 receptors (Homo sapiens, UniProt P18507+P31644); conditions: Huang et al., J. Med. Chem. 2000, 43, 71-95; cited from earlier work
GABAA/α2 = GABAA/α2 (Homo sapiens, UniProt P18507+P47869); conditions: Huang et al., J. Med. Chem. 2000, 43, 71-95; cited from earlier work
GABAA/α3 = GABAA/α3 (Homo sapiens, UniProt P18507+P34903); conditions: Huang et al., J. Med. Chem. 2000, 43, 71-95; cited from earlier work
GABAA/α1 receptors = GABAA/α1 receptors (Homo sapiens, UniProt P14867+P18507); conditions: Huang et al., J. Med. Chem. 2000, 43, 71-95; cited from earlier work
[13] = tested on: Metrazol-induced clonic seizures; test: Subcutaneous Metrazol test (scMet), rats; assay type: in vivo
Description: as §1
(§4) Subcutaneous injection of the convulsant Metrazol produces clonic seizures in laboratory animals. […] Animals are pretreated with various doses of the test compound (in a similar manner to the MES test, although a dose of 50 mg/kg (po) is the standard for Test 2 scMet). At the previously determined TPE of the test compound, the dose of Metrazol which will induce convulsions in 97% of animals (CD97: 85 mg/kg mice) is injected into a loose fold of skin in the midline of the neck. […] An episode of clonic spasms, approximately 3-5 seconds, of the fore and/or hindlimbs, jaws, or vibrissae is taken as the endpoint.

[14] = tested on: minimal motor deficit (ataxia, abnormal gait); test: Toxicity (TOX), minimal motor deficit, rats; assay type: in vivo; conditions: Rat PO; for Tox, animals toxic/tested: 50 mg/kg
Description: as §1, §2

[15] = Toxicity (TOX), minimal motor deficit, rats; assay type: in vivo; conditions: in vivo; Rat IP
Description: as §1, §2

[16] = tested on: minimal muscular or neurological impairment; test: Toxicity (TOX), rotorod procedure, mice; assay type: in vivo
Description: as §1, §2

MES-induced seizures [17] = test: Maximal electroshock test (MES), mice; assay type: in vivo
Description: as §1
(§5) The MES is a model for generalized tonic-clonic seizures and provides an indication of a compound's ability to prevent seizure spread when all neuronal circuits in the brain are maximally active. These seizures are highly reproducible and are electrophysiologically consistent with human seizures. For all tests based on MES convulsions, 60 Hz of alternating current (50 mA in mice, 150 in rats) is delivered for by corneal electrodes which have been primed with an electrolyte solution containing an anesthetic agent (0.5% tetracaine HCL). For Test 1, mice are tested at various intervals following doses of 30, 100 and 300 mg/kg of test compound given by ip injection of a volume of 0.01 mL/g. In Test 2, rats are tested after a dose of 30 mg/kg (po) in a volume of 0.04 mL/g. Test 8 uses varying doses administered via i.p. injection, again in a volume of 0.04 ml/g. […] In Antiepileptic Drugs, Levy, R. H. M., Meldrum, B. S., Eds.; Raven Press: New York, pp 99-110, 1995b.).

MES-induced seizures [18] = test: Maximal electroshock test (MES), rats; assay type: in vivo; conditions: Rat PO; for MES, animals protected/tested: 30 mg/kg
Description: as §1, §5

kindled motor seizure = test: Hippocampus kindling screen; assay type: in vivo; conditions: Rats IP, 3 mg/kg after 4 h
Source text: The hippocampus kindling screen is a useful adjunct to the traditional MES and scMet tests for identification of a substance potential utility for treating complex partial seizures. […] No toxic effects were observed as indicated by the lack of motor impairment on the rats tested.

[19] = tested on: Metrazol-induced clonic seizures; test: Subcutaneous Metrazol test (scMet), mice; assay type: in vivo
Description: as §1, §4

[20] = 32 mA, read-out: ED50 32 mA (6 Hz test)
[21] = Mice, 50 mg/kg PO (Mice IP), 0.5 hr
[22] = Mice, 50 mg/kg PO (Mice IP), 4.0 hr

O=C1NC(=O)C(c2ccccc2)(c2ccccc2)N1 [Phenytoin]
ED50 MES (MES-induced seizures [1]): 5.64 mg/kg | ED50 scMet [2]: >500 mg/kg | ED50 (6 Hz psychomotor seizure; [20]): > 40 mg/kg | ED50 MES (MES-induced seizures [3]): 28.1 mg/kg | TD50 [4]: 51 mg/kg | ED50 scMet [5]: >50 mg/kg | TD50 TOX [6]: >1000 mg/kg

C#Cc1ccc2c(c1)C(c1ccccc1)=NCC(=O)N2C [QH-II-066, 1-Methyl-7-acetyleno-5-phenyl-1,3-dihydro-benzo[e]-1,4-diazepin-2-one]
Ki [7]: 76.3 nM | Ki [8]: > 1000 nM | Ki [9]: > 1000 nM | Ki [10]: 47.4 nM | Ki [11]: 42.1 nM | Ki [12]: 6.8 nM | Ki (GABAA/α5 receptors): < 10 nM | Ki (GABAA/α2): < 50 nM | Ki (GABAA/α3): < 50 nM | Ki (GABAA/α1 receptors): > 70 nM

C#Cc1ccc2c(c1)C(c1ccccc1Cl)=NCc1nnc(C)n1-2 [XLi-JY-DMH (23), 8-Acetyleno-5-(2′-chlorophenyl)-1-methyl-4H-s-triazolo-[4,3-a]-1,4-benzodiazepine]
ED50 ([13]; Rat IP): 4.2 mg/kg | ED50 ([13]; Rat PO): 1.58 mg/kg | scMet, animals protected/tested ([13]; Rat PO, 15 mg/kg, 0.5 h): 3/4^c | scMet, animals protected/tested ([13]; Rat PO, 15 mg/kg, 1.0 h): 2/4^c | scMet, animals protected/tested ([13]; Rat PO, 15 mg/kg, 2.0 h): 4/4^c | scMet, animals protected/tested ([13]; Rat PO, 15 mg/kg, 4.0 h): 2/4^c | scMet, animals protected/tested ([13]; Rat PO, 15 mg/kg, […]): 3/4^c | scMet, animals protected/tested ([13]; Rat PO, 50 mg/kg, 0.5 h): 4/4 | scMet, animals protected/tested ([13]; Rat PO, 50 mg/kg, 1.0 h): 4/4 | scMet, animals protected/tested ([13]; Rat PO, 50 mg/kg, 2.0 h): 4/4 | scMet, animals protected/tested ([13]; Rat PO, 50 mg/kg, 4.0 h): 3/4 | scMet, animals protected/tested ([13]; Rat PO, 50 mg/kg, […]): 4/4 | ED50 (6 Hz psychomotor seizure; [20]): 0.17 mg/kg | ED50 (6 Hz psychomotor seizure; 44 mA, read-out: ED50 44 mA (6 Hz test)): 0.4 mg/kg | Tox, animals toxic/tested ([14]; 0.5 h): 0/4 | Tox, animals toxic/tested ([14]; 1.0 h): 0/4 | Tox, animals toxic/tested ([14]; 2.0 h): 0/4 | Tox, animals toxic/tested ([14]; 4.0 h): 0/4 | Tox, animals toxic/tested ([14]; […]): 0/4 | TD50 TOX ([14]; abnormal gait): 166.25 mg/kg | TD50 [15]: 2.08 mg/kg | TOX (Rotorod Test), animals toxic/tested ([16]; Mice IP, 100 mg/kg, 0.5 hr): 6/8 | TOX (Rotorod Test), animals toxic/tested ([16]; Mice IP, 100 mg/kg, 4.0 hr): 2/4 | TD50 TOX ([16]; Mice IP, rotorod): 2.875 mg/kg | TOX (Rotorod Test), animals toxic/tested [16, 21]: 0/4 | TOX (Rotorod Test), animals toxic/tested [16, 22]: 0/4 | MES, animals protected/tested (MES-induced seizures [17]; Mice IP, 100 mg/kg, 0.5 hr): 3/3 | MES, animals protected/tested (MES-induced seizures [17]; Mice IP, 100 mg/kg, 4.0 hr): 3/3 | MES, animals protected/tested (MES-induced seizures [17]; [21]): 0/4 | MES, animals protected/tested (MES-induced seizures [17]; [22]): 0/4 | ED50 (MES-induced seizures [17]; Mus musculus, Mice IP): > 6 mg/kg | ED50 (MES-induced seizures [18]): > 150 mg/kg | MES, animals protected/tested (MES-induced seizures [18]; 0.5 h): 0/4 | MES, animals protected/tested (MES-induced seizures [18]; 1.0 h): 0/4 | MES, animals protected/tested (MES-induced seizures [18]; 2.0 h): 0/4 | MES, animals protected/tested (MES-induced seizures [18]; 4.0 h): 0/4 | MES, animals protected/tested (MES-induced seizures [18]; […]): 0/4 | Tox, animals toxic/tested (kindled motor seizure): 0/2^c | Afterdischarge Duration, Drug (Low-High) (kindled motor seizure; pre-drug 29-41): 29- s | mice protected against scMet induced seizures ([19]; Mice IP, 100 mg/kg, 0.5 hr): 100% | scMet, animals protected/tested ([19]; Mice IP, 100 mg/kg, 0.5 hr): 1/1 | scMet, animals protected/tested ([19]; Mice IP, 100 mg/kg, 4.0 hr): 1/1 | scMet, animals protected/tested [19, 21]: 3/4 | scMet, animals protected/tested [19, 22]: 2/4 | ED50 ([19]; Mus musculus, Mice IP): 1.03 mg/kg
